Substitutions are numbered along the chain they refer to.
Key:
[1] = system: T1, Oxysterols receptor LXR-alpha (Homo sapiens), Q13133 [R305G]; assay: Agonist activity at human GAL-tagged LXRbeta-LBD R305G mutant transfected in HEK293T cells assessed as co-activator recruitment using NCoR as co-repressor by TR-FRET assay relative to TO901317; assay type: cell-based
T1 sequence (whole entry): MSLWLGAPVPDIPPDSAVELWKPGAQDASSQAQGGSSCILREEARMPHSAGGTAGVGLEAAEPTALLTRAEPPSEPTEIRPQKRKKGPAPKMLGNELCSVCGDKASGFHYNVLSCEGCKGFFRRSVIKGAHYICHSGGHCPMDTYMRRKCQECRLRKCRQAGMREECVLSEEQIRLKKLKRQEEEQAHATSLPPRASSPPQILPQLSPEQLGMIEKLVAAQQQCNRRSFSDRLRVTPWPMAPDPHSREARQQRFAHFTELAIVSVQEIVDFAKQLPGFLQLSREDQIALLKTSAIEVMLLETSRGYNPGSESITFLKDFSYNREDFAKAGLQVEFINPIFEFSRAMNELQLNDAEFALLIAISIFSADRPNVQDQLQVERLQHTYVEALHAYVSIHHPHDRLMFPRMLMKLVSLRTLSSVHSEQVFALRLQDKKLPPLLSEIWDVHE

[2] = target: T2, Oxysterols receptor LXR-alpha (Homo sapiens, UniProt Q13133); assay: Agonist activity at human LXRalpha-LBD (182 to 447 amino acids) expressed in HEK293T cells by luciferase reporter gene assay; assay type: cell-based
T2 sequence (Q13133 whole entry): T1 sequence (whole entry) with G305R

[3] = target: T3, Oxysterols receptor LXR-beta (Homo sapiens, UniProt P55055); assay: Agonist activity at human LXRbeta-LBD (196 to 461 amino acids) expressed in HEK293T cells by luciferase reporter gene assay; assay type: cell-based
T3 sequence (P55055 whole entry): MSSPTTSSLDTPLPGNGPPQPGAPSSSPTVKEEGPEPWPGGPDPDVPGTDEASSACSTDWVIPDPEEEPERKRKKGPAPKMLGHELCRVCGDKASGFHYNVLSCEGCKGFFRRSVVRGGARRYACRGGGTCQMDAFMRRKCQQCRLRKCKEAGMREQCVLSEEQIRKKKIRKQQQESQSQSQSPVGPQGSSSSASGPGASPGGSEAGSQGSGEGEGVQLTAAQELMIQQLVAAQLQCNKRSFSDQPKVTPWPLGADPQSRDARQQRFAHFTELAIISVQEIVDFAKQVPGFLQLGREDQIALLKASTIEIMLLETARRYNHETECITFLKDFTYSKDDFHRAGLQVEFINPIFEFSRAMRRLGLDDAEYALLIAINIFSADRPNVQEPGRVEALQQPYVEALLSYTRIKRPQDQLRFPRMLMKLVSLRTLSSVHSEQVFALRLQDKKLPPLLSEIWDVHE

[4] = system: T1, Oxysterols receptor LXR-alpha (Homo sapiens), Q13133 [R305G]; assay: Agonist activity at human GAL-tagged LXRbeta-LBD R305G mutant transfected in HEK293T cells assessed as co-activator recruitment using TRAP220 as co-activator by TR-FRET assay relative to TO901317; assay type: cell-based
[5] = target: T4, Oxysterols receptor LXR-beta (Homo sapiens) (UniProt P55055); assay: Agonist activity at human GAL-tagged LXRbeta-LBD F271A mutant transfected in HEK293T cells assessed as co-repressor recruitment using SMRT as co-repressor by TR-FRET assay relative to TO901317; assay type: cell-based
T4 sequence (whole entry): T3 sequence (P55055 whole entry)

[6] = target: T4, Oxysterols receptor LXR-beta (Homo sapiens); assay: Agonist activity at human GAL-tagged LXRbeta-LBD F271A mutant transfected in HEK293T cells assessed as co-activator recruitment using D22 as co-activator by TR-FRET assay relative to TO901317; assay type: cell-based
[7] = target: T5, Oxysterols receptor LXR-alpha (Homo sapiens) (UniProt Q13133); assay: Agonist activity at human LXRalpha expressed in HEK293 cells after 24 hrs by One-Glo luciferase reporter gene assay relative to TO901317; assay type: cell-based
T5 sequence (whole entry): T1 sequence (whole entry) with G305R

[8] = target: T2, Oxysterols receptor LXR-alpha; assay: Agonist activity at human LXRalpha expressed in HEK293 cells after 24 hrs by One-Glo luciferase reporter gene assay; assay type: cell-based
Cynomolgus monkey [9] = assay: In vivo transactivation of LXRbeta in cynomolgus monkey assessed as induction of ABCG1 expression at 1 mg/kg, po by PCR analysis; assay type: functional, Macaca fascicularis
Cynomolgus monkey [10] = assay: In vivo transactivation in po dosed cynomolgus monkey blood assessed as induction ABCG1 mRNA expression after 24 hrs by PCR analysis; assay type: functional, organism-based; conditions: Macaca fascicularis
[11] = Plasma concentration in cynomolgus monkey at 1 mg/kg, po after 48 hrs by LC-MS analysis; assay type: ADME, organism-based, Macaca fascicularis
[12] = Cmax in cynomolgus monkey at 1 mg/kg, po by LC-MS analysis; assay type: ADME, organism-based, Macaca fascicularis; design: dose 1 mg/kg, route oral; conditions: in vivo
Cynomolgus monkey [13] = assay: Increase in plasma LDL cholesterol in orally dosed cynomolgus monkey; assay type: functional, Macaca fascicularis
Cynomolgus monkey [14] = assay: Increase in plasma triglycerides in orally dosed cynomolgus monkey; assay type: functional, Macaca fascicularis
[15] = Tmax in cynomolgus monkey at 1 mg/kg, po by LC-MS analysis; assay type: ADME, organism-based, Macaca fascicularis; conditions: in vivo
[16] = target: T3, Oxysterols receptor LXR-beta; assay: Inverse agonist activity at LXRbeta (unknown origin) expressed in HEK293 cells 24 hrs by Dual-Glo luciferase assay; assay type: cell-based
[17] = target: T2, Oxysterols receptor LXR-alpha; assay: Inverse agonist activity at LXRalpha (unknown origin) expressed in HEK293 cells 24 hrs by Dual-Glo luciferase assay; assay type: cell-based
Mus musculus = assay: Reduction in hepatic collagen deposition in mouse at 30 mg/kg, ip for 30 days; assay type: functional; conditions: 720 h
[18] = target: T3, Oxysterols receptor LXR-beta; assay: Agonist activity at GAL4-tagged human LXRbeta LBD expressed in HEK293T cells after 12 hrs by luciferase reporter gene assay; assay type: cell-based
[19] = target: T3, Oxysterols receptor LXR-beta; assay: Agonist activity at human full length LXRbeta expressed in African green monkey CV-1 cells co-expressing human pCMX/RXRalpha after 20 hrs by luciferase reporter gene assay; assay type: cell-based
Homo sapiens = species on record: Homo sapiens; assay: Toxicity in human assessed as decrease in mean neutrophil count at 15 mg after 7 days relative to baseline control; assay type: organism-based; design: scale not given: the % may be the effect or the level left; conditions: in vivo, 168 h

CN(CC(=O)Nc1ccc(F)c(F)c1F)C(=O)c1ccc2c(c1)OCCO2
Activity [1]: 31% | EC50 [2]: 150 nM | EC50 [3]: 530 nM | Activity [4]: 18% | Activity [5]: 23% | Activity [6]: 13%

COC1CCN(C(=O)CC[C@@H](C)[C@H]2CC[C@H]3[C@@H]4CC=C5C[C@@H](O)CC[C@]5(C)[C@H]4CC[C@]23C)CC1
Emax [7]: 58% | EC50 [8]: 230 nM

CC(C)(O)c1cn(-c2ccc(-c3cccc(S(C)(=O)=O)c3)cc2)c(C(C)(C)c2ccccc2Cl)n1 [BMS-779788]
fold change (FC) (Cynomolgus monkey [9]): 4.7 | EC50 (Cynomolgus monkey [10]): 610 nM | concentration at 48 h [11]: 154 nM | Cmax [12]: 2230 nM | fold change (FC) (Cynomolgus monkey [13]): 12 | fold change (FC) (Cynomolgus monkey [14]): 29 | Tmax [15]: 2 h

CCOC(=O)c1ccc(CN(Cc2ccc(-c3cccc(S(C)(=O)=O)c3)cc2)S(=O)(=O)c2c(C)cc(C)cc2C)o1
IC50 [16]: 43 nM | IC50 [17]: 214 nM | inhibition in vivo at 30 mg/kg (Mus musculus): 90%

Cc1c(C(=O)OC(C)C(=O)N2CCNC2=O)oc2cc(F)ccc12 (stereo not drawn)
EC50 [18]: 720 nM

CS(=O)(=O)c1cccc(-c2ccc(-c3cc(C(F)(F)F)nn3-c3ccccc3Cl)s2)c1
EC50 [19]: 108 nM

CC(C)(O)c1cn(-c2ccc(-c3cc(F)c(CO)c(S(C)(=O)=O)c3)cc2F)c(C(C)(C)c2c(Cl)cccc2Cl)n1 [BMS-852927]
Activity (Homo sapiens): 47%

C[C@H](CCC(=O)N(C)C)[C@H]1CC[C@H]2[C@@H]3CC=C4C[C@@H](O)CC[C@]4(C)[C@H]3CC[C@]12C
Emax [7]: 45% | EC50 [8]: 422 nM
